Measured values published in ChEMBL document CHEMBL4118174, “The discovery of VU0486846: steep SAR from a series of M1 PAMs based on a novel benzomorpholine core” (Bioorg Med Chem Lett, 2018).
Where a chain is given by its changes, count along the chain named.

Columns and labels:
[1] = target: T1, Muscarinic acetylcholine receptor M1 (Homo sapiens) (UniProt P11229); test: Positive allosteric modulation of human muscarinic acetylcholine M1 receptor expressed in CHO cells assessed as potentiation of acetylcholine-induced calcium mobilization relative to acetylcholine; assay type: functional, cell-based
T1 sequence (whole entry): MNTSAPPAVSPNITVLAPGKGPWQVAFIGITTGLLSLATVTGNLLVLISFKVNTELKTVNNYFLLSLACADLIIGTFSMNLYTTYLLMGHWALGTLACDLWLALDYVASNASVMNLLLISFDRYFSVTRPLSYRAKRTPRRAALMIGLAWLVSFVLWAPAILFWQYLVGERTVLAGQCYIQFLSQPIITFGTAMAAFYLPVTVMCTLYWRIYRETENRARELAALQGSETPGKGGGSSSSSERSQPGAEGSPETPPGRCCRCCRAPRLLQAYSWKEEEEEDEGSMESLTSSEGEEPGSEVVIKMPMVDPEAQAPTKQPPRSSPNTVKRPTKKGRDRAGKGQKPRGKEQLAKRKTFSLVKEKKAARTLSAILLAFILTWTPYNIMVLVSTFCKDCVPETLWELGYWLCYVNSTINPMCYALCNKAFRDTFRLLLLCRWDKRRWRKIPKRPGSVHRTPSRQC

[2] = Brain to plasma permeability coefficient, Kp of compound in Sprague-Dawley rat at 0.20 to 0.25 mg/kg administered as iv cassette dose measured at 0.25 hrs post dose; assay type: ADME, organism-based; conditions: for Kp at 0.25 h: Sprague-Dawley, brain and plasma; for Kp: brain, 0.25 h
[3] = target: T2, Muscarinic acetylcholine receptor M1 (Homo sapiens, UniProt P11229); test: Positive allosteric modulation of human muscarinic acetylcholine M1 receptor expressed in CHO cells assessed as potentiation of acetylcholine-induced calcium mobilization; assay type: functional, cell-based
T2 sequence (P11229 whole entry): T1 sequence (whole entry)

[4] = Fraction unbound in human plasma; assay type: ADME, cell-free
[5] = Fraction unbound in rat plasma; assay type: ADME, cell-free
[6] = Fraction unbound in plasma (unknown origin); assay type: ADME, cell-free
[7] = target: T2, Muscarinic acetylcholine receptor M1; test: Positive allosteric modulation of human muscarinic acetylcholine M1 receptor expressed in CHO-NFAT cells assessed as potentiation of acetylcholine-induced calcium mobilization after 4 hrs by CCF4-AM dye-based assay; assay type: functional, cell-based
[8] = Brain to plasma permeability coefficient, Kp of compound in mouse; assay type: ADME
[9] = target: T3, Muscarinic acetylcholine receptor M1 (Rattus norvegicus, UniProt P08482); test: Positive allosteric modulation of rat muscarinic acetylcholine M1 receptor; assay type: functional
T3 sequence (P08482 whole entry): T1 sequence (whole entry) with A5V, T254S, P309S, R320K, A337G, I413V

[10] = target: T2, Muscarinic acetylcholine receptor M1; test: Positive allosteric modulation of human muscarinic acetylcholine M1 receptor; assay type: functional
[11] = system: Rattus norvegicus; test: Cognitive enhancing effect in po dosed rat by novel object recognition test; assay type: functional; conditions: read-out: MED

For `O=C(NC1CCCCC1)C1CN(Cc2ccc(-n3cccn3)cc2)c2ccccc2O1` (configuration not stated), the %max [1] was 35%, the Kp at 0.25 h [2] was 1.1 and the EC50 ([3]; read-out: EC50) was > 10000 nM.

In the case of `Cc1ccc(CN2CC(C(=O)N[C@H]3CCCC[C@@H]3O)Oc3ccccc32)cn1` (some centres not stated), the %max [1] is reported as 85%, the EC50 ([3]; read-out: EC50) is reported as 850 nM and the EC50 ([3]; read-out: pEC50 (converted)) is reported as 813 nM.

`Cn1cc(-c2ccc(CN3CC(C(=O)N[C@H]4CCCC[C@@H]4O)Oc4ccccc43)cn2)cn1` (some centres not stated) gave a %max [1] of 84% and an EC50 ([3]; read-out: EC50) of 220 nM.

For `O=C(N[C@H]1CCCC[C@@H]1O)C1CN(Cc2ccc(-n3cccn3)cc2)c2ccc(F)cc2O1` (some centres not stated), the %max [1] was 80%, the fraction unbound [4] was < 0.01 and the fraction unbound [5] was < 0.01. The Kp [2] was 0.3 to 0.4 and the EC50 ([3]; read-out: EC50) was 2200 nM.

Molecule `O=C(N[C@H]1CCCC[C@@H]1O)C1Cc2ccccc2N(Cc2ccc(-n3cccn3)cc2)C1` (mixture of isomers) has a %max [1] of 75% and an EC50 ([3]; read-out: EC50) of 1400 nM.

Work on `CC(O)(CNC(=O)C1CN(Cc2ccc(-n3cccn3)cc2)c2ccccc2O1)C1CC1` (configuration not stated) yielded a %max [1] of 80% and an EC50 ([3]; read-out: EC50) of 1900 nM.

For `O=C(N[C@H]1CCCC[C@@H]1O)C1CN(Cc2ccc(C3CC3)nc2)c2ccccc2O1` (some centres not stated), the %max [1] was 90%, the EC50 ([3]; read-out: EC50) was 2500 nM and the EC50 ([3]; read-out: pEC50 (converted)) was 2240 nM.

In the case of `O=C(N[C@H]1CCCC[C@@H]1O)C1CN(Cc2ccc(-n3cccn3)cc2)c2cc(Cl)ccc2O1` (mixture of isomers), the %max [1] is reported as 86%, the Fu [6] is reported as < 0.001 and the EC50 ([3]; read-out: EC50) is reported as 2800 nM.

Work on `O=C(N[C@H]1CCCCC1=O)C1CN(Cc2ccc(-n3cccn3)cc2)c2ccccc2O1` (some centres not stated) yielded a %max [1] of 78% and an EC50 ([3]; read-out: EC50) of 2700 nM.

In the case of `Cc1ccn(-c2ccc(CN3CC(C(=O)N[C@H]4CCCC[C@@H]4O)Oc4ccccc43)cn2)n1` (some centres not stated), the %max [1] is reported as 91% and the EC50 ([3]; read-out: EC50) is reported as 670 nM.

For `Cc1ccc(Cc2cc3c(=O)n([C@H]4CCCC[C@@H]4O)cnc3c3ccccc23)cn1` [MK-7622], the EC50 [7] was < 100 nM.

In the case of `COc1cccnc1NC(=O)C1CN(Cc2ccc(-n3cccn3)cc2)c2ccccc2O1` (configuration not stated), the %max [1] is reported as 80%, the EC50 ([3]; read-out: EC50) is reported as 1700 nM and the EC50 ([3]; read-out: pEC50 (converted)) is reported as 1620 nM.

In the case of `O=C(N[C@H]1CCC[C@@H]1O)C1CN(Cc2ccc(-n3cccn3)cc2)c2ccccc2O1` (some centres not stated), the %max [1] is reported as 77%, the Kp at 0.25 h [2] is reported as 0.09 and the EC50 ([3]; read-out: EC50) is reported as 1200 nM.

For `O=C(N[C@H]1CCCC[C@@H]1O)C1CN(Cc2ccc(Br)nc2)c2ccccc2O1` (some centres not stated), the %max [1] was 91%, the EC50 ([3]; read-out: EC50) was 1200 nM and the EC50 ([3]; read-out: pEC50 (converted)) was 1070 nM.

With `NC1CCCCC1NC(=O)C1CN(Cc2ccc(-n3cccn3)cc2)c2ccccc2O1` (configuration not stated) the %max [1] was 62% and the EC50 ([3]; read-out: EC50) was 2300 nM.

With `O=C(N[C@H]1CCCC[C@@H]1O)C1CN(Cc2ccc(-n3cccc3)cc2)c2ccccc2O1` (mixture of isomers) the %max [1] was 81%, the Fu [6] was < 0.001 and the EC50 ([3]; read-out: EC50) was 2100 nM.

With `C=Cc1ccc(CN2CC(C(=O)N[C@H]3CCCC[C@@H]3O)Oc3ccccc32)cn1` (some centres not stated) the %max [1] was 89% and the EC50 ([3]; read-out: EC50) was 700 nM.

`O=C(N[C@H]1CCOC[C@@H]1O)C1CN(Cc2ccc(-n3cccn3)cc2)c2ccccc2O1` (some centres not stated) showed a %max [1] of 91%, a Kp at 0.25 h [2] of 0.08 and an EC50 ([3]; read-out: EC50) of 190 nM.

`O=C(N[C@H]1CCCC[C@@H]1O)C1CN(Cc2ccc(-n3ccnc3)nc2)c2ccccc2O1` (some centres not stated) gave a %max [1] of 87% and an EC50 ([3]; read-out: EC50) of 290 nM.

Molecule `CC1(C(=O)N[C@H]2CCCC[C@@H]2O)CN(Cc2ccc(-n3cccn3)cc2)c2ccccc2O1` (mixture of isomers) has a %max [1] of 61% and an EC50 ([3]; read-out: EC50) of 7300 nM.

`O=C(N[C@H]1CCCC[C@@H]1O)C1CN(Cc2ccc(Cl)nc2)c2ccccc2O1` (some centres not stated) showed a %max [1] of 73%, an EC50 ([3]; read-out: EC50) of 7600 nM and an EC50 ([3]; read-out: pEC50 (converted)) of 7080 nM.

For `O=C(N[C@H]1CCCC[C@@H]1O)C1CN(Cc2ccc(-n3cccn3)nc2)c2ccccc2O1` (mixture of isomers), the %max [1] was 92%, the Fu [6] was < 0.001 and the EC50 ([3]; read-out: EC50) was 780 nM. The EC50 ([3]; read-out: pEC50 (converted)) was 708 nM.

In the case of `O=C(N[C@H]1CCCC[C@@H]1O)C1CN(Cc2ccc(-n3cccn3)cc2F)c2ccccc2O1` (mixture of isomers), the %max [1] is reported as 88%, the Fu [6] is reported as < 0.001 and the EC50 ([3]; read-out: EC50) is reported as 1600 nM.

Work on `O=C(N[C@H]1CCCC[C@@H]1O)C1CN(Cc2ccc(C(F)(F)F)nc2)c2ccccc2O1` (some centres not stated) yielded a %max [1] of 84% and an EC50 ([3]; read-out: EC50) of 3700 nM.

In the case of `CC(C)(O)CNC(=O)C1CN(Cc2ccc(-n3cccn3)cc2)c2ccccc2O1` (configuration not stated), the %max [1] is reported as 60%, the EC50 ([3]; read-out: EC50) is reported as 6400 nM and the EC50 ([3]; read-out: pEC50 (converted)) is reported as 5890 nM.

For `O=C(N[C@H]1CCCC[C@@H]1O)C1CN(Cc2ccc(-n3cccn3)cc2)c2ccccc2O1` (mixture of isomers), the Kp [8] was 0.7, the %max [1] was 77% and the fraction unbound [4] was ≥ 0.11. For the same molecule, the Fu [5] was > 0.11, the Kp [2] was 0.17 and the EC50 ([3]; read-out: EC50) was 920 nM.

In the case of `CN(C)c1ccc(CN2CC(C(=O)N[C@H]3CCCC[C@@H]3O)Oc3ccccc32)cn1` (some centres not stated), the %max [1] is reported as 89% and the EC50 ([3]; read-out: EC50) is reported as 3800 nM.

With `O=C(NCC(O)C(F)(F)F)C1CN(Cc2ccc(-n3cccn3)cc2)c2ccccc2O1` (configuration not stated) the %max [1] was 78% and the EC50 ([3]; read-out: EC50) was 2200 nM.

Molecule `O=C(Nc1ncccc1F)C1CN(Cc2ccc(-n3cccn3)cc2)c2ccccc2O1` (configuration not stated) has a %max [1] of 81% and an EC50 ([3]; read-out: EC50) of 2300 nM.

`O=C(Nc1ncccc1O)C1CN(Cc2ccc(-n3cccn3)cc2)c2ccccc2O1` (configuration not stated) gave a %max [1] of 75%, a Kp at 0.25 h [2] of 0.11 and an EC50 ([3]; read-out: EC50) of 710 nM. The EC50 ([3]; read-out: pEC50 (converted)) was 692 nM.

Work on `Cn1nccc1-c1ccc(CN2CC(C(=O)N[C@H]3CCCC[C@@H]3O)Oc3ccccc32)cn1` (some centres not stated) yielded a %max [1] of 94% and an EC50 ([3]; read-out: EC50) of 1300 nM.

In the case of `O=C(N[C@H]1CCCC[C@@H]1O)C1CN(Cc2ccc(-n3cccn3)cc2)c2cc(F)ccc2O1` (some centres not stated), the %max [1] is reported as 88%, the fraction unbound [4] is reported as < 0.01 and the fraction unbound [5] is reported as < 0.01. For the same molecule, the Kp [2] was 0.3 to 0.4, the EC50 ([3]; read-out: EC50) was 320 nM and the EC50 ([3]; read-out: pEC50 (converted)) was 309 nM.

In the case of `O=C(N[C@H]1CCCC[C@@H]1O)C1CN(Cc2ccc(-n3cccc3)nc2)c2ccccc2O1` (some centres not stated), the %max [1] is reported as 94% and the EC50 ([3]; read-out: EC50) is reported as 500 nM.

For `O=C(NC1CCOCC1)C1CN(Cc2ccc(-n3cccn3)cc2)c2ccccc2O1` (configuration not stated), the %max [1] was 69%, the Kp at 0.25 h [2] was 1 and the EC50 ([3]; read-out: EC50) was 6600 nM.

`O=C(N[C@H]1CCCC[C@@H]1O)C1CN(Cc2ccc(-n3cccn3)cc2)c2cccc(F)c2O1` (some centres not stated) showed a %max [1] of 89%, a Kp [2] of 0.3 to 0.4 and an EC50 ([3]; read-out: EC50) of 140 nM.

In the case of `O=C(N[C@H]1CCCC[C@@H]1O)[C@H]1CN(Cc2ccc(-n3cccn3)cc2)c2ccccc2O1`, the EC50 [9] is reported as 250 nM, the EC50 [10] is reported as 250 nM and the minimal effective dose [11] is reported as 3 mg/kg.

For `O=C(N[C@H]1CCCC[C@@H]1O)C1CN(Cc2ccc(-n3cccn3)cc2)c2c(F)cccc2O1` (some centres not stated), the %max [1] was 76%, the fraction unbound [4] was < 0.01 and the fraction unbound [5] was < 0.01. The Kp [2] was 0.3 to 0.4, the EC50 ([3]; read-out: EC50) was 3180 to 3200 nM and the EC50 ([3]; read-out: pEC50 (converted)) was 3090 nM.
